T1: recombinant human GDF-8 (Homo sapiens, UniProt O14793)
T1 sequence (O14793 267-375): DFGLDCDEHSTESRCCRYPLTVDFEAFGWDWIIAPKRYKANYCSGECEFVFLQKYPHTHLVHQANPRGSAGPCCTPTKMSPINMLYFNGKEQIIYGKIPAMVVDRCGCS

T2: recombinant human Activin A (Homo sapiens, UniProt P08476)
T2 sequence (P08476 311-426): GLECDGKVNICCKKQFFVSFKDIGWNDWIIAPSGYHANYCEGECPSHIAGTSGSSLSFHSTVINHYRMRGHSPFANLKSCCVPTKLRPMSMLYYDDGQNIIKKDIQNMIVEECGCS

T3: GIP receptor (GIPR) (Rattus norvegicus, UniProt P43219)
T3 construct: endogenous in cells; host or cells: rat INS-1 insulinoma cells (derivatives with a cAMP-luciferase reporter or pGloSensor-22F)
T3 sequence (P43219 19-455): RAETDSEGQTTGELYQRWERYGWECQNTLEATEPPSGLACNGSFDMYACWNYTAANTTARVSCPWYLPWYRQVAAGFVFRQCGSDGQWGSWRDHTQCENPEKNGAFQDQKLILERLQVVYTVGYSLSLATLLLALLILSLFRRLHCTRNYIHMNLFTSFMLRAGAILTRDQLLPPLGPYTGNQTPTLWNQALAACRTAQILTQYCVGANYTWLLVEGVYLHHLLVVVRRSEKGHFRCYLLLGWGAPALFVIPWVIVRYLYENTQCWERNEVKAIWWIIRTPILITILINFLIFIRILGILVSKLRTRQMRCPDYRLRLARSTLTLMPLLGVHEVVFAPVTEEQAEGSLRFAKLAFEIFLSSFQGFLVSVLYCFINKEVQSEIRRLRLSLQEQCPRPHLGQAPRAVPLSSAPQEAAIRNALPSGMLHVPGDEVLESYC

B1: GIP(Ag)-Fc-FGF19: chimeric protein: GIP fused to FGF19 via IgG1 hinge-CH2-CH3 Fc domain; SEQ ID NO: 88 (protein)
chain: YAEGTFISDYSIAMDKIHQQDFVNWLLAQKGKKNDWKHNITQPCPAPEAAGGPSVFLFPPKPKDTLMISRTPEVTCVVVDVSHEDPEVKFNWYVDGVEVHNAKTKPREEQYNSTYRVVSVLTVLHQDWLNGKEYKCKVSNKALPAPIEKTISKAKGQPREPQVYTLPPSRDELTKNQVSLTCLVKGFYPSDIAVEWESNGQPENNYKTTPPVLDSDGSFFLYSKLTVDKSRWQQGNVFSCSVMHEALHNHYTQKSLSLSPGKIEGRMDRDSSPLVHYGWGDPIRLRHLYTSGPHGLSSCFLRIRADGVVDCARGQSAHSLLEIKAVALRTVAIKGVHSVRYLCMGADGKMQGLLQYSEEDCAFEEEIRPDGYNVYRSEKHRLPVSLSSAKQRQLYKNRGFLPLSHFLPMLPMVPEEPEDLRGHLESDMFSSPLETDSMDPFGLVTGLEAVRSPSFEK

Key:
recombinant human GDF-8 = target: T1, recombinant human GDF-8; test: MSD platform-based binding assay to plate-bound GDF-8; settings: anti-human Fc detection
Description: The binding by a recombinant human ACVR2B-Fc fusion protein to GDF-8 (also known as myostatin) was characterized using a Meso Scale Discovery (MSD) platform-based assay. Briefly, GDF-8 was coated on a plate and 8× serial dilutions of the purified recombinant human ACVR2B-Fc fusion protein were also added in a series of wells. The protein captured by the plate-bound GDF-8 was detected using an anti-human Fc antibody and a SULFO-TAG conjugated secondary antibody.
(§1) The binding to GDF-8 by the GLP-1-Fc-ACVR2B fusion protein produced using the mmRNA constructs was investigated using a Meso Scale Discovery (MSD) platform-based assay. Briefly, HEK293T cells were transfected with each mRNA construct using lipofectamine 2000, and culture supernatants were collected after 48 hours. GDF-8 was coated on a plate, and 3× serial dilutions of the culture supernatants were added to the plate for capture by the plate-bound GDF-8. The protein captured by the plate-bound GDF-8 was detected using an anti-human Fc antibody and a SULFO-TAG conjugated secondary antibody. The MSD signals generated by the culture supernatants of HEK293T cells transfected with different mmRNA constructs were plotted as a line graph.

[1] = target: T2, recombinant human Activin A; test: MSD platform-based binding assay to plate-bound Activin A; settings: anti-human Fc detection
Description: The binding by a recombinant human ACVR2B-Fc fusion protein to activin A (also known as Inhibin beta A) was characterized using a Meso Scale Discovery (MSD) platform-based assay. Briefly, Activin A was coated on a plate and 8× serial dilutions of the purified recombinant human ACVR2B-Fc fusion protein were also added in a series of wells. The protein captured by the plate-bound Activin A was detected using an anti-human Fc antibody and a SULFO-TAG conjugated secondary antibody.
as §1, with “Activin A” for “GDF-8”, “Activin A.” for “GDF-8.”

HFD-fed mice [2] = test: glucose tolerance test (GTT) model in HFD-fed mice; format: in vivo
Description: Cages were changed once, then changed once a week.
The mice administered the above treatment by i.v. injections. The mice were then fasted for 18 hours and administered a dose of 2 g/kg glucose by i.v. injections. Blood samples were drawn by tail clip bleeding at 15, 30 and 60 minutes post dosing and cardiac bleeding was used at 2 hours after glucose injection as end-point.

[3] = system: rat insulinoma INS-1 cells; test: in vitro glucose-stimulated insulin secretion (GSIS) in rat insulinoma INS-1 cells; format: cell-based; settings: 1 hour glucose, then 2 hour incubation; ELISA; FIG. 4B
Text: X is a known inducer of GSIS.

HFD-fed mice [4] = test: longer-term obesity model in HFD-fed mice
Description: Mice (Male C57BL/6) were of approximately 13 weeks of age were housed 4 mice per cage. Following 2 weeks of acclimation, mice were introduced to 60% kcal HFD (Research Diets D12492). Cages were changed once, then changed once a week. Weekly body weights and non-fasted blood glucose were collected.
Mice were injected by tail vein with vehicle or the drugs on Day 0, Day 4, Day 7, Day 10, Day 14, and Day 18. Body weights were measured every 2 days. Change in body weight was calculated and plotted.
Cumulative food intake was measured between day 0 and 3, between day 4 and 7, between day 7 and day 11, and between day 11 and day 14, and represented as average daily food intake. For food consumption, remaining food was weighed on days 3, 8, and 15, and subtracted from the starting weight. This value was then normalized to the number of mice in the cage, and the number of days the mice had access to the food prior to weighing.
Blood glucose levels were measured on Days 0, 1, 10 and 15 and plotted.
On day 19 during terminal necropsy, liver and subcutaneous white adipose tissue were recovered weighed from treated animals.
To further analyze the changes in liver, histopathological analysis was conducted. Briefly, the liver tissue was stained with hematoxylin and eosin (H&E) and evaluated using standard techniques.

GIP receptor (GIPR) = target: T3, GIP receptor (GIPR); test: cAMP-Glo assay in rat insulinoma INS-1 cells harboring a cAMP-luciferase reporter gene; format: cell-based; settings: 1 hour glucose, then 2 hour incubation with increasing amounts; FIG. 4A
Text: Rat insulinoma INS-1 cells harboring a cAMP-luciferase reporter gene were used to study the activation of GIPR. Without wishing to be bound by theory, the activation of GIPR leads to temporary depletion of ATP because of consumption of ATP in cyclization reaction to produce cAMP as well as by phosphorylation by protein kinase A of its substrate. Without wishing to be bound by theory, the temporary depletion of ATP leads to an inhibition of luciferase activity, which needs ATP as a substrate.

Molecule	binding to GDF-8 (recombinant human GDF-8)	binding to Activin A [1]	serum insulin following glucose administration (time course) (HFD-fed mice [2]; GTT, FIG. 7C)	glucose tolerance (HFD-fed mice [2]; GTT, summary of Example 11)	serum glucose following glucose administration (time course) (HFD-fed mice [2]; i.v. treatment, 18 hours fast, 2 g/kg glucose i.v., tirzepatide 1.25 mpk, fusion protein 5 mpk, mRNA 1 mpk, FIG. 7A)	insulin in the culture supernatant (glucose-stimulated insulin secretion) [3]	blood glucose levels compared to the untreated mice (HFD-fed mice [4]; Days 0, 1, 10 and 15, FIG. 8E)	weights of individual mice (HFD-fed mice [4]; FIG. 8B)	plasma insulin levels on Day 15 (HFD-fed mice [4]; FIG. 8C right panel)	average daily food intake compared to the untreated mice (HFD-fed mice [4]; FIG. 8D)	collagen staining (fibrosis), liver sections stained with picrosirius red (HFD-fed mice [4]; FIG. 8I)	hepatocellular ballooning and steatosis (liver H&E histology) (HFD-fed mice [4]; FIG. 8J)	plasma insulin levels on Day 1 (HFD-fed mice [4]; between 15 and 120 minutes after treatment, FIG. 8C left panel)	liver weight, PBS control versus treated mice (HFD-fed mice [4]; day 19 terminal necropsy, FIG. 8G)	subcutaneous white adipose tissue (sWAT) weight (HFD-fed mice [4]; day 19 terminal necropsy, FIG. 8H)	tolerability / clinical observations (HFD-fed mice [4]; obesity model, repeated tail vein dosing)	collagen staining (fibrosis) in comparison with tirzepatide or dulaglutide (HFD-fed mice [4]; picrosirius red, FIG. 8I)	change in body weight (HFD-fed mice [4]; tail vein on Day 0, 4, 7, 10, 14, 18, dulaglutide 1 mpk, tirzepatide 0.5 mpk, fusion protein 5 mpk, mRNA 1 mpk, FIG. 8A)	inhibition of luciferase (activation of GIPR) (GIP receptor (GIPR))
GLP-1-Fc-ACVR2B: GLP-1 fused to extracellular domain of ACVR2B via IgG1 Fc domain; SEQ ID NO: 154; tested as culture supernatant of mmRNA-transfected HEK293T cells	binds to the human GDF-8	binds to the human Activin A																	
GLP-1-Fc-GIP(Ag): chimeric protein: GLP-1 fused to GIP agonist (amino acids 1-42) via IgG1 hinge-CH2-CH3 Fc domain; SEQ ID NO: 93			rapid induction of insulin	improved glucose tolerance	much smaller increase in serum glucose	stimulated insulin production to a similar, if not greater magnitude than dulaglutide or tirzepatide	decrease in blood glucose	induced weight loss	significant decrease in the levels of insulin	decrease in food intake	decrease in collagen staining	decrease in hepatocellular ballooning and steatosis	rapid decrease in insulin levels	the livers of control mice that received only PBS were much heavier compared to the mice receiving treatments	decreased	well tolerated and no overt toxicities were noted	greater decrease in collagen staining compared to the livers from mice treated with tirzepatide or dulaglutide	progressive weight loss	
B1						stimulated insulin production to a similar, if not greater magnitude than dulaglutide or tirzepatide													dose-dependent and saturable inhibition of luciferase with similar potency

Source: patent US12145975B2, “Fusion proteins for the treatment of cardiometabolic diseases” (Shattuck Labs, Inc., priority 2022, dated 2024)
